Experimental data taken from article PMC9475553, “SHF Acts as a Novel Tumor Suppressor in Glioblastoma Multiforme by Disrupting STAT3 Dimerization” (Advanced Science, 2022).

Columns and labels:
STAT3 dimerization = assay: FRET assay: STAT3 dimerization in U251 cells; assay type: cell-based, human; settings: U251 cells transfected for 24 h, then C16 2 h; n=3, P < 0.01
Description: Spectral fluorescence resonance energy transfer (FRET) assay was used to examine the dimerization of STAT3 and interaction between STAT3 and SHF. The procedure was performed as described previously.^[ [46] ^] Briefly, U251 cells were seeded at a density of 20 000 cells/compartment on coverslips coated with 1% poly‐L‐lysine (Sigma) in 24 well‐plates. For detecting SHF inhibiting STAT3 dimerization, ectopic SHF‐expressing stable U251 cells were transfected with STAT3‐DsRed and STAT3‐EGFP. For detecting SHF binding STAT3, U251 cells were transfected with SHF‐DsRed and STAT3‐EGFP. Cells were imaged on a Leica TCS SP8 confocal microscope (40× objective and 10× objective, 488 nm Argon laser line) after 24 h. Cells were excited with 488 nm laser (donor), and the emission of the acceptor DsRed was recorded at 565 nm. The FRET efficiency was calculated on a pixel‐by‐pixel basis with the following equation: FRET efficiency = FRETcorr / (FRETcorr + Donor). […] To increase the reliability of the calculations and prevent noise from distorting the calculated ratio, we excluded pixels below 50 intensity units and saturated pixels from the calculations and set their intensities to zero. […]
Supplementary Fig. 8 Quantitative analysis of normalized FRET ratio in U251 cells (n=3, […]

[1] = test system: U87 xenograft tumor cell proliferation; assay: EdU incorporation in intracranial U87 xenografts; assay type: in vivo, mouse; settings: 10 µg i.p. once every 2 days; EdU 24 h prior to sacrifice; vs SC; n = 6, p < 0.01
Description: Considering that the SH2 domain predominantly represents the inhibition of SHF on STAT3 dimerization and activity, we speculated that this domain may be an optional target for GBM suppression. To this end, we analyzed the mechanical interaction of SHF and STAT3. The structures of human SHF (aa265‐421) and STAT3 (aa130‐715). both of which spanned their respective SH2 domain. were simulated by Swiss‐Model server (https://swissmodel.expasy.org/). To simulate the interaction of SHF and STAT3, Discovery studio 2018 was employed to complete protein‐protein docking using ZDOCK as an initial stage. A rigid body molecular docking algorithm utilizing a fast Fourier transform (FFT) algorithm was used to further improve performance for searching in translational space. […] Next, we determined the implication of C16 in tumor inhibition. […] A concentration of 25 uM was determined to be adequate for use in the subsequent experiments. […]
Figure 7 Peptide derived from the STAT3‐binding sites of SHF is an effective GBM suppressive strategy. […] B) IF staining determined the cell penetrability and nuclear‐localization of C16. […] The relative quantification of STAT3 dimerization was listed. […] The relative quantification of STAT3/DNMT1 interaction was listed. […] The relative quantification of STAT3/DNMT1 interaction was listed. […]

C16: peptide spanning SHF amino acids 388–421, palmitic acid at the N-terminus, amidated C-terminus, 3× His tags added to the C-terminal (PFSSVPEIVHHYASRKLPIKGAEHMSLLYPVAIR; palmitic acid at the N-terminus; amidated C-terminus; left off: 3× His tags, C-terminal, kept)
inhibition of STAT3 dimerization (FRET) (STAT3 dimerization): effectively inhibits STAT3 dimerization
EdU positive cells in xenografts [1]: significantly decreased
